Assay: xn = mol fraction of the nth substance listed
Settings: 101 kPa, Liquid; for mass density: Vibrating tube method

NCCO.O=CO [2-hydroxyethylammonium formate] + O
Settings	mass density [kg/m3]	speed of sound [m/s]
288.15 K, x2 = 0	1183.57	1733.9
288.15 K, x2 = 0.047	1182.89	1759.2
288.15 K, x2 = 0.108	1181.45	1760.3
288.15 K, x2 = 0.199	1178.55	1761.4
288.15 K, x2 = 0.311	1173.68	1761.4
288.15 K, x2 = 0.4	1168.78	1759.7
288.15 K, x2 = 0.492	1162.23	1757.1
288.15 K, x2 = 0.601	1151.56	1749.9
288.15 K, x2 = 0.699	1137.39	1739.3
288.15 K, x2 = 0.8	1114.92	1710.8
288.15 K, x2 = 0.9	1076.21	1644.7
288.15 K, x2 = 0.95	1045.03	1578.9
290.65 K, x2 = 0	1181.81	1727.4
290.65 K, x2 = 0.047	1181.24	1754
290.65 K, x2 = 0.108	1179.79	1755.5
290.65 K, x2 = 0.199	1176.92	1756.4
290.65 K, x2 = 0.311	1172.05	1756.7
290.65 K, x2 = 0.4	1167.17	1755.1
290.65 K, x2 = 0.492	1160.63	1752.9
290.65 K, x2 = 0.601	1149.99	1746.3
290.65 K, x2 = 0.699	1135.87	1736.3
290.65 K, x2 = 0.8	1113.52	1709.2
290.65 K, x2 = 0.9	1075.06	1645.8
290.65 K, x2 = 0.95	1044.13	1582.3
293.15 K, x2 = 0	1180.04	1721.3
293.15 K, x2 = 0.047	1179.6	1748.9
293.15 K, x2 = 0.108	1178.13	1750.5
293.15 K, x2 = 0.199	1175.29	1751.4
293.15 K, x2 = 0.311	1170.43	1752
293.15 K, x2 = 0.4	1165.55	1750.6
293.15 K, x2 = 0.492	1159.04	1748.7
293.15 K, x2 = 0.601	1148.42	1742.6
293.15 K, x2 = 0.699	1134.35	1733.3
293.15 K, x2 = 0.8	1112.1	1707.5
293.15 K, x2 = 0.9	1073.89	1646.8
293.15 K, x2 = 0.95	1043.2	1585.6
295.65 K, x2 = 0	1178.27	1715.1
295.65 K, x2 = 0.047	1177.95	1743.8
295.65 K, x2 = 0.108	1176.52	1745.4
295.65 K, x2 = 0.199	1173.65	1746.5
295.65 K, x2 = 0.311	1168.8	1747.2
295.65 K, x2 = 0.4	1163.94	1746.1
295.65 K, x2 = 0.492	1157.44	1744.4
295.65 K, x2 = 0.601	1146.85	1738.9
295.65 K, x2 = 0.699	1132.83	1730.2
295.65 K, x2 = 0.8	1110.67	1705.6
295.65 K, x2 = 0.9	1072.7	1647.6
295.65 K, x2 = 0.95	1042.26	1588.8
298.15 K, x2 = 0	1176.49	1709
298.15 K, x2 = 0.047	1176.31	1738.7
298.15 K, x2 = 0.108	1174.91	1740.4
298.15 K, x2 = 0.199	1172.02	1741.6
298.15 K, x2 = 0.311	1167.18	1742.5
298.15 K, x2 = 0.4	1162.32	1741.6
298.15 K, x2 = 0.492	1155.83	1740.2
298.15 K, x2 = 0.601	1145.28	1735.1
298.15 K, x2 = 0.699	1131.3	1727.1
298.15 K, x2 = 0.8	1109.23	1703.7
298.15 K, x2 = 0.9	1071.48	1648.3
298.15 K, x2 = 0.95	1041.28	1591.7
300.65 K, x2 = 0	1174.71	1702.9
300.65 K, x2 = 0.047	1174.67	1733.6
300.65 K, x2 = 0.108	1173.29	1735.3
300.65 K, x2 = 0.199	1170.39	1736.7
300.65 K, x2 = 0.311	1165.55	1737.8
300.65 K, x2 = 0.4	1160.7	1737.1
300.65 K, x2 = 0.492	1154.23	1735.9
300.65 K, x2 = 0.601	1143.7	1731.2
300.65 K, x2 = 0.699	1129.77	1723.9
300.65 K, x2 = 0.8	1107.79	1701.8
300.65 K, x2 = 0.9	1070.24	1648.7
300.65 K, x2 = 0.95	1040.27	1594.4
303.15 K, x2 = 0	1172.94	1696.8
303.15 K, x2 = 0.047	1173.02	1728.5
303.15 K, x2 = 0.108	1171.66	1730.3
303.15 K, x2 = 0.199	1168.76	1731.8
303.15 K, x2 = 0.311	1163.93	1733.1
303.15 K, x2 = 0.4	1159.09	1732.6
303.15 K, x2 = 0.492	1152.62	1731.6
303.15 K, x2 = 0.601	1142.12	1727.4
303.15 K, x2 = 0.699	1128.22	1720.7
303.15 K, x2 = 0.8	1106.33	1699.7
303.15 K, x2 = 0.9	1068.98	1649
303.15 K, x2 = 0.95	1039.22	1596.8
305.65 K, x2 = 0	1171.16	1690.8
305.65 K, x2 = 0.047	1171.38	1723.5
305.65 K, x2 = 0.108	1170.03	1725.2
305.65 K, x2 = 0.199	1167.12	1726.8
305.65 K, x2 = 0.311	1162.3	1728.3
305.65 K, x2 = 0.4	1157.47	1728
305.65 K, x2 = 0.492	1151.02	1727.3
305.65 K, x2 = 0.601	1140.53	1723.5
305.65 K, x2 = 0.699	1126.67	1717.4
305.65 K, x2 = 0.8	1104.86	1697.5
305.65 K, x2 = 0.9	1067.69	1649
305.65 K, x2 = 0.95	1038.12	1598.9
308.15 K, x2 = 0	1169.39	1684.8
308.15 K, x2 = 0.047	1169.74	1718.4
308.15 K, x2 = 0.108	1168.41	1720.2
308.15 K, x2 = 0.199	1165.49	1721.9
308.15 K, x2 = 0.311	1160.67	1723.6
308.15 K, x2 = 0.4	1155.85	1723.5
308.15 K, x2 = 0.492	1149.4	1723
308.15 K, x2 = 0.601	1138.94	1719.6
308.15 K, x2 = 0.699	1125.12	1714.1
308.15 K, x2 = 0.8	1103.38	1695.2
308.15 K, x2 = 0.9	1066.39	1648.9
308.15 K, x2 = 0.95	1036.99	1600.8
310.65 K, x2 = 0	1167.62	1678.7
310.65 K, x2 = 0.047	1168.1	1713.4
310.65 K, x2 = 0.108	1166.77	1715.2
310.65 K, x2 = 0.199	1163.86	1717.1
310.65 K, x2 = 0.311	1159.05	1718.9
310.65 K, x2 = 0.4	1154.22	1718.9
310.65 K, x2 = 0.492	1147.79	1718.7
310.65 K, x2 = 0.601	1137.34	1715.6
310.65 K, x2 = 0.699	1123.56	1710.7
310.65 K, x2 = 0.8	1101.88	1692.8
310.65 K, x2 = 0.9	1065.06	1648.6
310.65 K, x2 = 0.95	1035.83	1602.4
313.15 K, x2 = 0	1165.84	1672.7
313.15 K, x2 = 0.047	1166.46	1708.3
313.15 K, x2 = 0.108	1165.14	1710.2
313.15 K, x2 = 0.199	1162.22	1712.1
313.15 K, x2 = 0.311	1157.42	1714.1
313.15 K, x2 = 0.4	1152.6	1714.4
313.15 K, x2 = 0.492	1146.17	1714.3
313.15 K, x2 = 0.601	1135.74	1711.7
313.15 K, x2 = 0.699	1121.98	1707.2
313.15 K, x2 = 0.8	1100.38	1690.4
313.15 K, x2 = 0.9	1063.71	1648.2
313.15 K, x2 = 0.95	1034.64	1603.8
315.65 K, x2 = 0	1164.06	1666.7
315.65 K, x2 = 0.047	1164.82	1703.3
315.65 K, x2 = 0.108	1163.51	1705.2
315.65 K, x2 = 0.199	1160.59	1707.2
315.65 K, x2 = 0.311	1155.79	1709.4
315.65 K, x2 = 0.4	1150.97	1709.8
315.65 K, x2 = 0.492	1144.56	1710
315.65 K, x2 = 0.601	1134.13	1707.6
315.65 K, x2 = 0.699	1120.4	1703.7
315.65 K, x2 = 0.8	1098.86	1687.8
315.65 K, x2 = 0.9	1062.35	1647.5
315.65 K, x2 = 0.95	1033.42	1604.9
318.15 K, x2 = 0	1162.29	1660.8
318.15 K, x2 = 0.047	1163.18	1698.3
318.15 K, x2 = 0.108	1161.88	1700.2
318.15 K, x2 = 0.199	1158.96	1702.4
318.15 K, x2 = 0.311	1154.16	1704.7
318.15 K, x2 = 0.4	1149.34	1705.2
318.15 K, x2 = 0.492	1142.94	1705.6
318.15 K, x2 = 0.601	1132.52	1703.6
318.15 K, x2 = 0.699	1118.82	1700.2
318.15 K, x2 = 0.8	1097.33	1685.1
318.15 K, x2 = 0.9	1060.95	1646.7
318.15 K, x2 = 0.95	1032.17	1605.8
320.65 K, x2 = 0	1160.51	1654.8
320.65 K, x2 = 0.047	1161.55	1693.3
320.65 K, x2 = 0.108	1160.25	1695.3
320.65 K, x2 = 0.199	1157.34	1697.5
320.65 K, x2 = 0.311	1152.53	1699.9
320.65 K, x2 = 0.4	1147.7	1700.6
320.65 K, x2 = 0.492	1141.31	1701.2
320.65 K, x2 = 0.601	1130.9	1699.5
320.65 K, x2 = 0.699	1117.22	1696.5
320.65 K, x2 = 0.8	1095.78	1682.4
320.65 K, x2 = 0.9	1059.54	1645.7
320.65 K, x2 = 0.95	1030.89	1606.4
323.15 K, x2 = 0	1158.73	1648.9
323.15 K, x2 = 0.047	1159.94	1688.4
323.15 K, x2 = 0.108	1158.62	1690.5
323.15 K, x2 = 0.199	1155.72	1692.7
323.15 K, x2 = 0.311	1150.91	1695.2
323.15 K, x2 = 0.4	1146.05	1696
323.15 K, x2 = 0.492	1139.69	1696.8
323.15 K, x2 = 0.601	1129.29	1695.4
323.15 K, x2 = 0.699	1115.62	1692.8
323.15 K, x2 = 0.8	1094.23	1679.5
323.15 K, x2 = 0.9	1058.12	1644.6
323.15 K, x2 = 0.95	1029.58	1606.8
